This note sets out measurements from patent US20260078103A1, “ISOQUINOLONES AS PI3K INHIBITORS” (OnKure, Inc., priority 2022, published 2026).

The structures appear in SMILES notation.

In one assay the test system is T47D cells expressing mutant PI3Ka (H1047R). Briefly: In vitro cell proliferation, T47D cells (CellTiter-Glo). The settings on record: inhibition of proliferation, 72 hours, read-out: Avg T-47D EC50. In kind it is cell-based. As to the method: (§1) In Vitro Cell Proliferation: Determination of EC50 Values for Inhibition of Proliferation in T47D Cells Expressing Mutant PI3Ka (H1047R) Mutation and SKBR3 Cells Express WT PI3Ka.
(§2) T47D or SKBR3 cells were trypsinized, resuspended in culture media and seeded onto assay ready plates. T47D culture media consisted of RPMI, 10% FBS and Insulin (0.2 units/mL). SKBR3 culture media consisted of McCoys 5a and 10% FBS. Cells were seeded at a density of 1,500 cells/well and dispensed in 50 μl onto 384 well assay ready plates (Corning, 89089-790). Assay ready plates had previously been stamped with 10-point dilutions of compounds of interest, as well as controls. The Echo655 is used to stamp plates at 40 nL of compound or DMSO. Cells were grown for 72 hours at 37° Celsius and 5% CO2. After 72 hours, cells were equilibrated at room temperature for 15 minutes. 30 μL of CellTiter-Glo reagent is added to the plate, which is then shaken for 30 minutes at temperature at 300-500 rpm. Cells are then read on an Envision plate reader. The percentage of inhibition of proliferation was calculated using the following formula: % Inhibition=100×(LumD−Lumsample)/(LumD−Lumlnh), where D is obtained from cells treated with 0.1% DMSO only; lnh is obtained from cells treated with 10 uM Alpelisib. The effective concentration achieving 50% inhibition of proliferation (EC50) is calculated by fitting the Curve using Xlfit (v5.3.1.3), equation 201: Y=Bottom+(Top−Bottom)/(1+10^((LogEC50−X)*HillSlope)).
In general terms: In ATP-based viability assays light output follows the ATP content of the culture.
For orientation: EC50 means the midpoint of the concentration-response curve. Regarding `Cc1cc(C(C)Nc2ccccc2C(=O)O)c2cc(N3CCC4(CCN(CC(F)(F)F)C4)CC3)n(C)c(=O)c2c1` (single isomer, unassigned) [Example 97], the EC50 is 2 to 15 µM.
In the case of `Cc1cc(C(C)Nc2ccccc2C(=O)O)c2cc(N3C[C@@H]4CCCC[C@H]4C3)n(C)c(=O)c2c1` (single isomer, unassigned) [Example 100], the EC50 lay within 0.001 to 0.5 µM.
Consider `Cc1cc(C(C)Nc2ccccc2C(=O)O)c2cc(N3Cc4cc(F)cc(F)c4C3)n(C)c(=O)c2c1` (single isomer, unassigned) [Example 102], for which the EC50 was 2 to 15 µM.
On the same count and under the same terms, next, `Cc1cc(C(C)Nc2ccccc2C(=O)O)c2cc(N3Cc4cc(F)cc(F)c4C3)n(C)c(=O)c2c1` (single isomer, unassigned) [Example 103]: 0.001 to 0.5 µM.
`Cc1cc(C(C)Nc2ccccc2C(=O)O)c2cc(N3CCC(c4ccccc4)C3)n(C)c(=O)c2c1` (single isomer, unassigned) [Example 104]: the EC50 lay in the range of 2 to 15 µM.
As to `Cc1cc(C(C)Nc2ccccc2C(=O)O)c2cc(N3CCC(c4ccccc4)C3)n(C)c(=O)c2c1` (single isomer, unassigned) [Example 105], the EC50 fell in the range of 0.5 to 2 µM.
Take `Cc1cc(C(C)Nc2ccccc2C(=O)O)c2cc(N3Cc4ccncc4C3)n(C)c(=O)c2c1` (single isomer, unassigned) [Example 106]: the EC50 fell in the range of 2 to 15 µM.
With `Cc1cc(C(C)Nc2ccccc2C(=O)O)c2cc(N3Cc4ccncc4C3)n(C)c(=O)c2c1` (single isomer, unassigned) [Example 107], the EC50 fell in the range of 0.001 to 0.5 µM.
Same read-out and setting: next, `Cc1cc(C(C)Nc2ccccc2C(=O)O)c2cc(N3C[C@@H]4CN(CC(F)(F)F)C[C@H]4C3)n(C)c(=O)c2c1` (single isomer, unassigned) [Example 108]: 2 to 15 µM; `Cc1cc(C(C)Nc2ccccc2C(=O)O)c2cc(N3C[C@@H]4CN(CC(F)(F)F)C[C@H]4C3)n(C)c(=O)c2c1` (single isomer, unassigned) [Example 109]: 0.001 to 0.5 µM; `Cc1cc(C(C)Nc2ccccc2C(=O)O)c2cc(N3CCC4(CCN(CC(F)(F)F)CC4)CC3)n(C)c(=O)c2c1` (single isomer, unassigned) [Example 110]: 2 to 15 µM.

In the next assay the test system is SKBR3 cells express WT PI3Ka. Briefly: In vitro cell proliferation, SKBR3 cells (CellTiter-Glo). The format is cell-based. The settings on record: Homo sapiens, SK-BR-3, 72 h, inhibition of proliferation. The procedure: as §1, §2
`Cc1cc(C(C)Nc2ccccc2C(=O)O)c2cc(N3C[C@@H]4CCCC[C@H]4C3)n(C)c(=O)c2c1` (single isomer, unassigned) [Example 100] returned an EC50 of more than 15 µM.
Regarding `Cc1cc(C(C)Nc2ccccc2C(=O)O)c2cc(N3Cc4cc(F)cc(F)c4C3)n(C)c(=O)c2c1` (single isomer, unassigned) [Example 102], the EC50 is more than 15 µM.
`Cc1cc(C(C)Nc2ccccc2C(=O)O)c2cc(N3Cc4ccncc4C3)n(C)c(=O)c2c1` (single isomer, unassigned) [Example 106]: the EC50 was more than 15 µM.

Staying with this assay, now noted: inhibition of proliferation, 72 hours.
In the case of `Cc1cc(C(C)Nc2ccccc2C(=O)O)c2cc(N3CCC4(CCN(CC(F)(F)F)C4)CC3)n(C)c(=O)c2c1` (single isomer, unassigned) [Example 97], the EC50 was more than 15 µM.
As to `Cc1cc(C(C)Nc2ccccc2C(=O)O)c2cc(N3Cc4cc(F)cc(F)c4C3)n(C)c(=O)c2c1` (single isomer, unassigned) [Example 103], the EC50 is more than 15 µM.
Same read-out and setting: the same measure for `Cc1cc(C(C)Nc2ccccc2C(=O)O)c2cc(N3CCC(c4ccccc4)C3)n(C)c(=O)c2c1` (single isomer, unassigned) [Example 104]: 2 to 15 µM.
For `Cc1cc(C(C)Nc2ccccc2C(=O)O)c2cc(N3CCC(c4ccccc4)C3)n(C)c(=O)c2c1` (single isomer, unassigned) [Example 105], the EC50 was more than 15 µM.
As to `Cc1cc(C(C)Nc2ccccc2C(=O)O)c2cc(N3Cc4ccncc4C3)n(C)c(=O)c2c1` (single isomer, unassigned) [Example 107], the EC50 was more than 15 µM.
In turn, `Cc1cc(C(C)Nc2ccccc2C(=O)O)c2cc(N3C[C@@H]4CN(CC(F)(F)F)C[C@H]4C3)n(C)c(=O)c2c1` (single isomer, unassigned) [Example 108] gave an EC50 of more than 15 µM.
`Cc1cc(C(C)Nc2ccccc2C(=O)O)c2cc(N3C[C@@H]4CN(CC(F)(F)F)C[C@H]4C3)n(C)c(=O)c2c1` (single isomer, unassigned) [Example 109] yielded an EC50 of 2 to 15 µM.
Still for that read-out and setting: next, `Cc1cc(C(C)Nc2ccccc2C(=O)O)c2cc(N3CCC4(CCN(CC(F)(F)F)CC4)CC3)n(C)c(=O)c2c1` (single isomer, unassigned) [Example 110]: 2 to 15 µM.

A further assay relates to phosphorylation of AKT (pAKT) in SKBR3 cells express WT PI3Ka. Description: In vitro cell pAKT (Ser473) HTRF, SKBR3 cells. In kind it is cell-based. As to conditions: Homo sapiens, SK-BR-3, 6 h, cellular pAKT. The procedure: (§3) In Vitro Cell pAKT: Determination of IC50 Values for Inhibition of Phosphorylation of AKT (pAKT) in T47D Cells Expressing Mutant PI3Ka (H1047R) Mutation and SKBR3 Cells Express WT PI3Ka.
(§4) T47D or SKBR3 cells were trypsinized, resuspended in culture media and seeded onto assay ready plates. T47D culture media consisted of RPMI, 10% FBS and Insulin (0.2 units/mL). SKBR3 culture media consisted of McCoy's 5a and 10% FBS. Cells were seeded at a density of 5000 cells/well and dispensed in 12.5 μL onto 384 well assay ready plates (Perkin Elmer, 6008238)). Assay ready plates had previously been stamped with 10-point dilutions of compounds of interest, as well as controls. The Echo655 is used to stamp plates at 12.5 nL of compound or DMSO. Cells were grown for 6 hours at 37° Celsius and 5% CO2. After 6 hours, 4 μL of Lysis buffer reagent was added to the plate, which was then centrifuged for 1 minute at 1000 rpm. Then the plate was incubated at room temperature for 30 minutes. After 30 minutes, 4 μL of antibody mix containing Eu Cryptate, d2 Cryptate, and detection buffer, was added to the plate. The plate was centrifuged for 1 minute at 1000 rpm and then incubated overnight at room temperature. The plate was read on an Envision plate reader using the HTRF protocol. The percentage of inhibition of AKT phosphorylation was calculated using the following formula: % Inhibition=100×(pAKTHC−pAKTSample)/(pAKTHC−pAKTLC)), where pAKTHC is obtained from cells treated with 0.1% DMSO only; PAKTLC is obtained from cells treated with 10 uM Alpelisib. The IC50 (concentration achieving 50% inhibition of pAKT) is calculated by fitting the Curve using XIfit (v5.3.1.3), equation 201: Y=Bottom+(Top−Bottom)/(1+10^((LogIC50−X)*HillSlope)).
For orientation: IC50 means the midpoint of a concentration-inhibition curve. `Cc1cc(C(C)Nc2ccccc2C(=O)O)c2cc(N3C[C@@H]4CCCC[C@H]4C3)n(C)c(=O)c2c1` (single isomer, unassigned) [Example 100] came in with an IC50 of more than 15 µM.
As for `Cc1cc(C(C)Nc2ccccc2C(=O)O)c2cc(N3Cc4cc(F)cc(F)c4C3)n(C)c(=O)c2c1` (single isomer, unassigned) [Example 102], the IC50 is more than 15 µM.
Compound `Cc1cc(C(C)Nc2ccccc2C(=O)O)c2cc(N3CCC(c4ccccc4)C3)n(C)c(=O)c2c1` (single isomer, unassigned) [Example 104] showed an IC50 of more than 15 µM.
`Cc1cc(C(C)Nc2ccccc2C(=O)O)c2cc(N3Cc4ccncc4C3)n(C)c(=O)c2c1` (single isomer, unassigned) [Example 106] gave an IC50 of more than 15 µM.

Still in this assay, the particulars now being: cellular pAKT, 6 hours.
On to `Cc1cc(C(C)Nc2ccccc2C(=O)O)c2cc(N3CCC4(CCN(CC(F)(F)F)C4)CC3)n(C)c(=O)c2c1` (single isomer, unassigned) [Example 97], for which the IC50 was more than 15 µM.
Consider `Cc1cc(C(C)Nc2ccccc2C(=O)O)c2cc(N3Cc4cc(F)cc(F)c4C3)n(C)c(=O)c2c1` (single isomer, unassigned) [Example 103], for which the IC50 was more than 15 µM.
Consider `Cc1cc(C(C)Nc2ccccc2C(=O)O)c2cc(N3CCC(c4ccccc4)C3)n(C)c(=O)c2c1` (single isomer, unassigned) [Example 105], for which the IC50 was more than 15 µM.
`Cc1cc(C(C)Nc2ccccc2C(=O)O)c2cc(N3Cc4ccncc4C3)n(C)c(=O)c2c1` (single isomer, unassigned) [Example 107] returned an IC50 of more than 15 µM.
`Cc1cc(C(C)Nc2ccccc2C(=O)O)c2cc(N3C[C@@H]4CN(CC(F)(F)F)C[C@H]4C3)n(C)c(=O)c2c1` (single isomer, unassigned) [Example 108] registered an IC50 of more than 15 µM.
In the case of `Cc1cc(C(C)Nc2ccccc2C(=O)O)c2cc(N3C[C@@H]4CN(CC(F)(F)F)C[C@H]4C3)n(C)c(=O)c2c1` (single isomer, unassigned) [Example 109], the IC50 is more than 15 µM.
Consider `Cc1cc(C(C)Nc2ccccc2C(=O)O)c2cc(N3CCC4(CCN(CC(F)(F)F)CC4)CC3)n(C)c(=O)c2c1` (single isomer, unassigned) [Example 110], for which the half-maximal inhibitory concentration (IC50) was more than 15 µM.

For another assay, the system named is phosphorylation of AKT (pAKT) in T47D cells expressing mutant PI3Ka (H1047R). Description: In vitro cell pAKT (Ser473) HTRF, T47D cells. The format is cell-based. As to conditions: cellular pAKT, T47D cells, mutant PI3Ka (H1047R), 6 hours; read-out: Avg T-47D IC50. The procedure:
as §3, §4
On the technique in general: TR-FRET usually uses a lanthanide donor and a delayed reading to cut background.
On to `Cc1cc(C(C)Nc2ccccc2C(=O)O)c2cc(N3CCC4(CCN(CC(F)(F)F)C4)CC3)n(C)c(=O)c2c1` (single isomer, unassigned) [Example 97], for which the IC50 was in the range of 2 to 15 µM.
Same read-out and setting: next, `Cc1cc(C(C)Nc2ccccc2C(=O)O)c2cc(N3C[C@@H]4CCCC[C@H]4C3)n(C)c(=O)c2c1` (single isomer, unassigned) [Example 100]: 0.001 to 0.5 µM; `Cc1cc(C(C)Nc2ccccc2C(=O)O)c2cc(N3Cc4cc(F)cc(F)c4C3)n(C)c(=O)c2c1` (single isomer, unassigned) [Example 102]: more than 15 µM; `Cc1cc(C(C)Nc2ccccc2C(=O)O)c2cc(N3Cc4cc(F)cc(F)c4C3)n(C)c(=O)c2c1` (single isomer, unassigned) [Example 103]: 0.001 to 0.5 µM.
Still for that read-out and setting: next, `Cc1cc(C(C)Nc2ccccc2C(=O)O)c2cc(N3CCC(c4ccccc4)C3)n(C)c(=O)c2c1` (single isomer, unassigned) [Example 104]: more than 15 µM.
Same read-out and setting: next, `Cc1cc(C(C)Nc2ccccc2C(=O)O)c2cc(N3CCC(c4ccccc4)C3)n(C)c(=O)c2c1` (single isomer, unassigned) [Example 105]: 0.001 to 0.5 µM.
As to `Cc1cc(C(C)Nc2ccccc2C(=O)O)c2cc(N3Cc4ccncc4C3)n(C)c(=O)c2c1` (single isomer, unassigned) [Example 106], the IC50 is more than 15 µM.
`Cc1cc(C(C)Nc2ccccc2C(=O)O)c2cc(N3Cc4ccncc4C3)n(C)c(=O)c2c1` (single isomer, unassigned) [Example 107]: the IC50 lay within 0.001 to 0.5 µM.
Regarding `Cc1cc(C(C)Nc2ccccc2C(=O)O)c2cc(N3C[C@@H]4CN(CC(F)(F)F)C[C@H]4C3)n(C)c(=O)c2c1` (single isomer, unassigned) [Example 108], the IC50 is more than 15 µM.
On the same count and under the same terms, next, `Cc1cc(C(C)Nc2ccccc2C(=O)O)c2cc(N3C[C@@H]4CN(CC(F)(F)F)C[C@H]4C3)n(C)c(=O)c2c1` (single isomer, unassigned) [Example 109]: 0.001 to 0.5 µM; `Cc1cc(C(C)Nc2ccccc2C(=O)O)c2cc(N3CCC4(CCN(CC(F)(F)F)CC4)CC3)n(C)c(=O)c2c1` (single isomer, unassigned) [Example 110]: more than 15 µM.
